Results on 23 molecules are retold here after US20240226343A1, “NEUROPEPTIDE Y1 RECEPTOR (NPY1R) TARGETED THERAPEUTICS AND USES THEREOF” (RADIONETICS ONCOLOGY, INC., priority 2022, published 2024).

Like-named read-outs stand apart in the source and are kept apart here. Some results are limits rather than exact numbers.

The target of this test is T1, hNPY1R (Homo sapiens, UniProt P25929).
T1 construct: SK-N-MC cells endogenously expressing the NPY1R receptor; endogenous in cells; host or cells: SK-N-MC cells (crude membrane fractions)
T1 sequence (P25929 1-384): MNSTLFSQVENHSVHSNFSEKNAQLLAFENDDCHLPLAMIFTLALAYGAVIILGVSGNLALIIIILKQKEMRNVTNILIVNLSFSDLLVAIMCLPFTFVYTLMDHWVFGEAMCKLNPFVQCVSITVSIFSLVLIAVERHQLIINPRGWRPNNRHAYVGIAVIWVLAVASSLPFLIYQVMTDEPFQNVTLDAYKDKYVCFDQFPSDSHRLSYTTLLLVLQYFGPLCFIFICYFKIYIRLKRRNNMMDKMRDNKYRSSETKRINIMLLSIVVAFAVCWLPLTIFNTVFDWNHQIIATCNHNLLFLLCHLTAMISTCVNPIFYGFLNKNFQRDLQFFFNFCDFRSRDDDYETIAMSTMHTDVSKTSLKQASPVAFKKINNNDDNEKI
Put plainly: NPY1R binding assay: SK-N-MC membranes, [125I]-Peptide YY (human) competition. To be noted: SK-N-MC membranes.

Setting [1] is: data obtained after 120 minutes at rt, [125I]-Peptide YY, read-out: hNPY.R binding Ki* ††.
Setting [2] is: data obtained after 60 minutes at 37° C., [125I]-Peptide YY 0.05 nM, read-out: hNPY1R binding Ki* †.

Take `CCC(=O)NCCNC(=O)/N=C(/N)NCCC[C@@H](NC(=O)C(c1ccccc1)c1ccc(NCCCNC(=O)[C@H](N)CCC(=O)NCCN(C)CCNC(=O)CN2CCN(CC(=O)O)CCN(CC(=O)O)CCN(CC(=O)O)CC2)cc1)C(=O)NCc1ccc(O)cc1` (single isomer, unassigned) [Compound 145A]: the inhibition constant Ki under setting [1] is < 10 nM.

Regarding `CCC(=O)NCCNC(=O)/N=C(/N)NCCC[C@@H](NC(=O)C(c1ccccc1)c1cccc(OCCCCNC(=O)CCC(=O)N(CC(=O)O)C2CCN(C(=O)CN3CCN(CC(=O)O)CCN(CC(=O)O)CCN(CC(=O)O)CC3)CC2)c1)C(=O)NCc1ccc(O)cc1` (single isomer, unassigned) [Compound 117A], the inhibition constant (Ki) fell in the range of 10 to 100 nM under setting [2] and 10 to 100 nM under setting [1].

As for `CCC(=O)NCCNC(=O)/N=C(/N)NCCC[C@@H](NC(=O)C(c1ccccc1)c1ccc(NCCCNC(=O)[C@H](N)CCC(=O)NCCN(C)CCNC(=O)CN2CCN(CC(=O)O)CCN(CC(=O)O)CCN(CC(=O)O)CC2)cc1)C(=O)NCc1ccc(O)cc1` (single isomer, unassigned) [Compound 145B], the Ki under setting [1] is < 10 nM.

Consider `CCC(=O)NCCNC(=O)/N=C(/N)NCCC[C@@H](NC(=O)C(c1ccccc1)c1cccc(OCCCCNc2c(NCCNC(=O)[C@@H](CCCCN)NC(=O)CN3CCN(CC(=O)O)CCN(CC(=O)O)CCN(CC(=O)O)CC3)c(=O)c2=O)c1)C(=O)NCc1ccc(O)cc1` (stereo in doubt) [Compound 116B-In, indium (III) 2,2′,2″-(10-(2-((6-amino-1-((2-((2-((4-(3-((R,Z)-9-amino-4-((4-hydroxybenzyl)carbamoyl)-2,11,16-trioxo-1-phenyl-3,8,10,12,15-pentaazaoctadec-9-en-1-yl)phenoxy)butyl)amino)-3,4-dioxocyclobut-1-en-1-yl)amino)ethyl)amino)-1-oxohexan-2-yl)amino)-2-oxoethyl)-1,4,7,10-tetraazacyclododecane-1,4,7-triyl)triacetate], for which the inhibition constant (Ki) under setting [1] was < 10 nM.

For `CCNC(=O)/N=C(/N)NCCC[C@@H](NC(=O)C(c1ccccc1)c1cccc(OCCCCNC(=O)[C@@H](Cc2ccc(-c3ccccc3)cc2)NC(=O)[C@@H](CN)NC(=O)CN2CCN(CC(=O)O)CCN(CC(=O)O)CCN(CC(=O)O)CC2)c1)C(=O)NCc1ccc(O)cc1` (single isomer, unassigned) [Compound 148A], under setting [1], the Ki is < 10 nM.

Take `CCC(=O)NCCNC(=O)/N=C(/N)NCCC[C@@H](NC(=O)C(c1ccccc1)c1cccc(OCCCCNC(=O)[C@@H](CCCN)NC(=O)CCNC(=O)CN2CCN(CC(=O)O)CCN(CC(=O)O)CCN(CC(=O)O)CC2)c1)C(=O)NCc1ccc(O)cc1` (single isomer, unassigned) [Compound 147B]: the Ki under setting [1] is < 10 nM.

For the molecule `CCC(=O)NCCNC(=O)/N=C(/N)NCCC[C@@H](NC(=O)C(c1ccccc1)c1cccc(OCCCCNC(=O)[C@@H](CCCN)NC(=O)CCNC(=O)CN2CCN(CC(=O)O)CCN(CC(=O)O)CCN(CC(=O)O)CC2)c1)C(=O)NCc1ccc(O)cc1` (single isomer, unassigned) [Compound 147A], under setting [1], the inhibition constant (Ki) is < 10 nM.

For the molecule `CCC(=O)NCCNC(=O)/N=C(/N)NCCC[C@@H](NC(=O)C(c1ccccc1)c1ccc(NCCCNC(=O)NOCCNC(=O)CN2CCN(CC(=O)O)CCN(CC(=O)O)CCN(CC(=O)O)CC2)cc1)C(=O)NCc1ccc(O)cc1` (single isomer, unassigned) [Compound 160], the Ki under setting [1] lay within 10 to 100 nM.

Regarding `CCC(=O)NCCNC(=O)/N=C(/N)NCCC[C@@H](NC(=O)C(c1ccccc1)c1cccc(OCCCCNC(=O)CCOCCNC(=O)CN2CCN(CC(=O)O)CCN(CC(=O)O)CCN(CC(=O)O)CC2)c1)C(=O)NCc1ccc(O)cc1` (single isomer, unassigned) [Compound 108A], under setting [2], the Ki was < 10 nM.

On to `CCC(=O)NCCNC(=O)/N=C(/N)NCCC[C@@H](NC(=O)C(c1ccccc1)c1cccc(OCCCCNC(=O)[C@@H](Cc2ccc(-c3ccccc3)cc2)NC(=O)CCNC(=O)CN2CCN(CC(=O)O)CCN(CC(=O)O)CCN(CC(=O)O)CC2)c1)C(=O)NCc1ccc(O)cc1` (stereo partly drawn) [Compound 149, 2,2′,2″-(10-(2-((3-(((2R)-3-([1,1′-biphenyl]-4-yl)-1-((4-(3-((4R,Z)-9-amino-4-((4-hydroxybenzyl)carbamoyl)-2,11,16-trioxo-1-phenyl-3,8,10,12,15-pentaazaoctadec-9-en-1-yl)phenoxy)butyl)amino)-1-oxopropan-2-yl)amino)-3-oxopropyl)amino)-2-oxoethyl)-1,4,7,10-tetraazacyclododecane-1,4,7-triyl)triacetic acid], for which the Ki under setting [1] was < 10 nM.

Regarding `CCC(=O)NCCNC(=O)/N=C(/N)NCCC[C@@H](NC(=O)C(c1ccccc1)c1ccc(NCCCNC(=O)CN(C)C(=O)CN(C)C(=O)CN(C)C(=O)CN2CCN(CC(=O)O)CCN(CC(=O)O)CCN(CC(=O)O)CC2)cc1)C(=O)NCc1ccc(O)cc1` (single isomer, unassigned) [Compound 159], the inhibition constant (Ki) under setting [1] was < 10 nM.

As to `CCC(=O)NCCNC(=O)/N=C(/N)NCCC[C@@H](NC(=O)C(c1ccccc1)c1cccc(OCCCCNC(=O)CCOCCNC(=O)CN2CCN(CC(=O)O)CCN(CC(=O)O)CCN(CC(=O)O)CC2)c1)C(=O)NCc1ccc(O)cc1` (single isomer, unassigned) [Compound 108B], the Ki under setting [2] is < 10 nM.

As for `CCC(=O)NCCNC(=O)/N=C(/N)NCCC[C@@H](NC(=O)C(c1ccccc1)c1cccc(OCCCCNc2c(NCCNC(=O)[C@@H](CN)NC(=O)CN3CCN(CC(=O)O)CCN(CC(=O)O)CCN(CC(=O)O)CC3)c(=O)c2=O)c1)C(=O)NCc1ccc(O)cc1` (single isomer, unassigned) [Compound 115B], under setting [1], the Ki is < 10 nM.

In the case of `CCC(=O)NCCNC(=O)/N=C(/N)NCCC[C@@H](NC(=O)C(c1ccccc1)c1cccc(OCCCCNc2c(NCCNC(=O)[C@@H](CCCCN)NC(=O)CN3CCN(CC(=O)O)CCN(CC(=O)O)CCN(CC(=O)O)CC3)c(=O)c2=O)c1)C(=O)NCc1ccc(O)cc1` (single isomer, unassigned) [Compound 116A], under setting [1], the Ki is < 10 nM.

`CCC(=O)NCCNC(=O)/N=C(/N)NCCC[C@@H](NC(=O)C(c1ccccc1)c1cccc(OCCCCNC(=O)CNC(=O)[C@@H](CC(N)=O)NC(=O)CN2CCN(CC(=O)O)CCN(CC(=O)O)CCN(CC(=O)O)CC2)c1)C(=O)NCc1ccc(O)cc1` (single isomer, unassigned) [Compound 112A]: the Ki under setting [2] is 10 to 100 nM.

Regarding `CCC(=O)NCCNC(=O)/N=C(/N)NCCC[C@@H](NC(=O)C(c1ccccc1)c1cccc(NCCCNc2c(NCCNC(=O)CN3CCN(CC(=O)O)CCN(CC(=O)O)CCN(CC(=O)O)CC3)c(=O)c2=O)c1)C(=O)NCc1ccc(O)cc1` (single isomer, unassigned) [Compound 120A], under setting [1], the Ki was < 10 nM.

For the molecule `CCC(=O)NCCNC(=O)/N=C(/N)NCCC[C@@H](NC(=O)C(c1ccccc1)c1ccc(NCC(=O)N(C)CCCN(C)CCCN(C)C(=O)CN2CCN(CC(=O)O)CCN(CC(=O)O)CCN(CC(=O)O)CC2)cc1)C(=O)NCc1ccc(O)cc1` (single isomer, unassigned) [Compound 139B], under setting [1], the inhibitory constant (Ki) was < 10 nM.

On to `CCC(=O)NCCNC(=O)/N=C(/N)NCCC[C@@H](NC(=O)C(c1ccccc1)c1ccc(NCCCNC(=O)[C@H](N)CCCNC(=O)CN2CCC(NC(=O)CN3CCN(CC(=O)O)CCN(CC(=O)O)CCN(CC(=O)O)CC3)CC2)cc1)C(=O)NCc1ccc(O)cc1` (single isomer, unassigned) [Compound 146A], for which the Ki under setting [1] was < 10 nM.

With `CCC(=O)NCCNC(=O)/N=C(/N)NCCC[C@@H](NC(=O)C(c1ccccc1)c1cccc(OCCCCNC(=O)CCCCCNC(=O)CN2CCN(CC(=O)O)CCN(CC(=O)O)CCN(CC(=O)O)CC2)c1)C(=O)NCc1ccc(O)cc1` (single isomer, unassigned) [Compound 140A], under setting [1], the inhibitory constant (Ki) is < 10 nM.

Turning to `CCC(=O)NCCNC(=O)/N=C(/N)NCCC[C@@H](NC(=O)C(c1ccccc1)c1cccc(OCCOCCNC(=O)CN2CCN(CC(=O)O)CCN(CC(=O)O)CCN(CC(=O)O)CC2)c1)C(=O)NCc1ccc(O)cc1` (stereo partly drawn) [Compound 106, 2,2′,2″-(10-(2-((2-(2-(3-((4R,Z)-9-amino-4-((4-hydroxybenzyl)carbamoyl)-2,11,16-trioxo-1-phenyl-3,8,10,12,15-pentaazaoctadec-9-en-1-yl)phenoxy)ethoxy)ethyl)amino)-2-oxoethyl)-1,4,7,10-tetraazacyclododecane-1,4,7-triyl)triacetic acid], the Ki under setting [2] was < 10 nM.

For `CCC(=O)NCCNC(=O)/N=C(/N)NCCC[C@@H](NC(=O)C(c1ccccc1)c1cccc(OCCOCCOCCOCCOCCNC(=O)CN2CCN(CC(=O)O)CCN(CC(=O)O)CCN(CC(=O)O)CC2)c1)C(=O)NCc1ccc(O)cc1` (single isomer, unassigned) [Compound 101B], the Ki under setting [2] is < 10 nM.

Turning to `CCC(=O)NCCNC(=O)/N=C(/N)NCCC[C@@H](NC(=O)C(c1ccccc1)c1ccc(NCCCNC(=O)[C@H](N)CCCNC(=O)[C@@H](Cc2ccc(-c3ccccc3)cc2)NC(=O)CN2CCN(CC(=O)O)CCN(CC(=O)O)CCN(CC(=O)O)CC2)cc1)C(=O)NCc1ccc(O)cc1` (single isomer, unassigned) [Compound 134A], the Ki under setting [1] is < 10 nM.

For the molecule `CCC(=O)NCCNC(=O)/N=C(/N)NCCC[C@@H](NC(=O)C(c1ccccc1)c1cccc(OCCOCCOCCOCCOCCNC(=O)CN2CCN(CC(=O)O)CCN(CC(=O)O)CCN(CC(=O)O)CC2)c1)C(=O)NCc1ccc(CNC(N)=O)cc1` (single isomer, unassigned) [Compound 114B], under setting [2], the Ki was 10 to 100 nM.

A word on the Ki: it is the equilibrium dissociation constant of an inhibitor or competing ligand from its target.
